For data set [1], the target named is T1, Alpha-1D adrenergic receptor (Homo sapiens, UniProt P25100). Further: in other assays of this panel Not Active means under 50% inhibition at 10 µM.
T1 sequence (P25100 whole entry): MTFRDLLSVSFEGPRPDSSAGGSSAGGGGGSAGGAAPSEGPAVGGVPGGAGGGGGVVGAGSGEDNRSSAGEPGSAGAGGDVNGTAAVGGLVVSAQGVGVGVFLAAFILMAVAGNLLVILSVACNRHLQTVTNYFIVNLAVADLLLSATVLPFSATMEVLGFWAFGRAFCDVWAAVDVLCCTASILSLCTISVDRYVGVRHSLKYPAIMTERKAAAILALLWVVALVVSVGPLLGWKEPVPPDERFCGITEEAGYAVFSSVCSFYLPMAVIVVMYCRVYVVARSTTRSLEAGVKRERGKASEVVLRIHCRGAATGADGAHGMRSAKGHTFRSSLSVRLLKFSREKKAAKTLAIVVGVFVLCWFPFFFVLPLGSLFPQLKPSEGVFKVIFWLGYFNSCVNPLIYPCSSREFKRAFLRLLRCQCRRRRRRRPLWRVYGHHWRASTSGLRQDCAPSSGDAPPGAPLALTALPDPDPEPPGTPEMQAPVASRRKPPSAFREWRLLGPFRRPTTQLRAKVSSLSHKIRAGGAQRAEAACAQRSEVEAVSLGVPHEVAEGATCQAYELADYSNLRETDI
In kind it is cell membranes, HEK293, Membrane.

The target in a further data set is T2, Progesterone receptor (Bos taurus, UniProt Q690N0).
T2 sequence (Q690N0 whole entry): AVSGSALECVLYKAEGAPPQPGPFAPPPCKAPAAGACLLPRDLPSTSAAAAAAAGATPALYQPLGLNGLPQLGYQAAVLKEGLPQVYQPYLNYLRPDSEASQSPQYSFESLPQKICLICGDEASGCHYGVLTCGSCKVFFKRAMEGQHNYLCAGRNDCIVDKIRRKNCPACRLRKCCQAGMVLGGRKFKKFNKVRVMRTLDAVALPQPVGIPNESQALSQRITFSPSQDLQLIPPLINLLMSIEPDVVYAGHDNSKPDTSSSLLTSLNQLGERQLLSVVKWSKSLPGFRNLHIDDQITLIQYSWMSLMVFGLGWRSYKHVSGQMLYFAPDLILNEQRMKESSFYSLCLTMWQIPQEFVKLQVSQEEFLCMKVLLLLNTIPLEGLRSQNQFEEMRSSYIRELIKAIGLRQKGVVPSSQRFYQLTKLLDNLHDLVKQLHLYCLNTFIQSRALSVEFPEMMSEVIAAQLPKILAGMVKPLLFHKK
The data set can be described thus: DRUGMATRIX: Progesterone radioligand binding (ligand: [3H] R-5020). In kind it is tissue-based, Uterus. Conditions: Not Active = under 50% inhibition at 10 µM; for pIC50: read-out: IC50; for pKi: read-out: Ki.

In data set [2] the target is T3, C-X-C chemokine receptor type 1 (Homo sapiens, UniProt P25024). Further: in other assays of this panel Not Active means under 50% inhibition at 10 µM.
T3 sequence (P25024 whole entry): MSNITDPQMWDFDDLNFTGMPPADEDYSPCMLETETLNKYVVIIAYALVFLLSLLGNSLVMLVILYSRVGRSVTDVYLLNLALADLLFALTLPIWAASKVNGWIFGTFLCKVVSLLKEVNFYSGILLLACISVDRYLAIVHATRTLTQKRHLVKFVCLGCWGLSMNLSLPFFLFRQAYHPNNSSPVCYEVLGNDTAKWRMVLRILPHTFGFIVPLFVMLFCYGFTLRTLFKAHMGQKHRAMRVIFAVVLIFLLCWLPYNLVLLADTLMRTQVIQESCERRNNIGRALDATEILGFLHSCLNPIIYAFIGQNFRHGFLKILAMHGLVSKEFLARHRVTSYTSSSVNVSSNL

A short description of data set [3]: DRUGMATRIX: Platelet-Derived Growth Factor (PDGF) radioligand binding (ligand: [125I] PDGF). In kind it is cell-based. Conditions: nih3t3; Not Active = under 50% inhibition at 10 µM.
For another data set, the target named is Cytochrome P450 3A4 (Homo sapiens, UniProt P08684). As to conditions: bti-tn-5b1-4. Further: in other assays of this panel Not Active means under 50% inhibition at 10 µM.
Sequence of Cytochrome P450 3A4 (P08684 whole entry): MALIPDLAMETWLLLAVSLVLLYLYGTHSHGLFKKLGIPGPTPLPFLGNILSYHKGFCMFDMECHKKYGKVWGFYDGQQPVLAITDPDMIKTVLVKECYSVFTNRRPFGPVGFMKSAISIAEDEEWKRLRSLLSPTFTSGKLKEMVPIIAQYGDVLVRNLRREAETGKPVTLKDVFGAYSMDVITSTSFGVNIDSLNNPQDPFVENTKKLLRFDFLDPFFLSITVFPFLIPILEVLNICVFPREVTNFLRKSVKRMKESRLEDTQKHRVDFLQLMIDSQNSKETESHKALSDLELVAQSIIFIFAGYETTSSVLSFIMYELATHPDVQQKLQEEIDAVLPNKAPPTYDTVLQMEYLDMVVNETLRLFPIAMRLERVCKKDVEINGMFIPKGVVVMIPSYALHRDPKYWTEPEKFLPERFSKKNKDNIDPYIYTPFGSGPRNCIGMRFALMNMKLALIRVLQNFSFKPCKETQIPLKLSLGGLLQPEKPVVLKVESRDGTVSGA
Data set [4] has as its target Protein kinase C alpha type (Homo sapiens, UniProt P17252). In kind it is cell-based. Conditions: sf9.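 Further: inhibition of PKCalpha kinase activity measured in an enzyme assay with histone as the phosphorylation substrate; in other assays of this panel Not Active means under 50% inhibition at 10 µM.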
The target of data set [5] is T4, Alpha-1A adrenergic receptor (Rattus norvegicus, UniProt P43140).
T4 sequence (P43140 whole entry): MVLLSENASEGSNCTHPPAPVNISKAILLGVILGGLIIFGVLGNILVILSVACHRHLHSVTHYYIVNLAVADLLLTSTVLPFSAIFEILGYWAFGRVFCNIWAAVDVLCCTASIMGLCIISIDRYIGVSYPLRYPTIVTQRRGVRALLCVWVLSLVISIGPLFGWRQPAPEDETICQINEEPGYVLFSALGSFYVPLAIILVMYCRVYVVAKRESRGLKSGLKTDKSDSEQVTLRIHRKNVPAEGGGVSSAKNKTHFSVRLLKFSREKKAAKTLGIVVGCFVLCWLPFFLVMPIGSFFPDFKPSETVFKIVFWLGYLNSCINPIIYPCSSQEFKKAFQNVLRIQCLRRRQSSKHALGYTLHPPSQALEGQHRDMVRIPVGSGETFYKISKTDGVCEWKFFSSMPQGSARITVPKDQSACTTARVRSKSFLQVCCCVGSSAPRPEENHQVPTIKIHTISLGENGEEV
The data set can be described thus: DRUGMATRIX: Alpha-1A adrenergic receptor radioligand binding (ligand: prazosin). Conditions: Not Active = under 50% inhibition at 10 µM. In kind it is cell membranes, Wistar, Submaxillary gland, Membrane.

pIC50, pKi: −log10 of the molar value.

For `O=P1(N(CCCl)CCCl)NCCCO1` (stereo not given) [CYCLOPHOSPHAMIDE ANHYDROUS], the IC50 result (in data set [1] (hek293); at Progesterone receptor; in data set [2]; in data set [3]; at Cytochrome P450 3A4; in data set [4]) was “Not Active” in each case. The IC50 entry in data set [5] is “Not Active”. Also, the Ki result (in data set [3]; on Cytochrome P450 3A4) was “Not Active” throughout.

Consider `CC(=O)O[C@]1(C(C)=O)CC[C@H]2[C@@H]3C=C(Cl)C4=CC(=O)[C@@H]5C[C@@H]5[C@]4(C)[C@H]3CC[C@@]21C` [CYPROTERONE ACETATE], for which the Ki result (in data set [1] (hek293); in data set [3]; at Cytochrome P450 3A4) was “Not Active” throughout. The pIC50 on Progesterone receptor was 7.43. In addition, the pKi on Progesterone receptor was 8.31. In addition, the IC50 result (in data set [2]; in data set [3]; against Cytochrome P450 3A4; in data set [4]; in data set [5]) was “Not Active” in each case.

Consider `Nc1nc(N)nc(NC2CC2)n1` [CYROMAZINE], for which the IC50 result (in data set [1] (hek293); on Progesterone receptor; in data set [2]; in data set [3]; against Cytochrome P450 3A4; in data set [4]) was “Not Active” in each case. In addition, in data set [5], the IC50 result is on record as “Not Active”. The Ki result (in data set [3]; on Cytochrome P450 3A4) was “Not Active” throughout.

As to `C#C[C@]1(O)CC[C@H]2[C@@H]3CCC4=Cc5oncc5C[C@]4(C)[C@H]3CC[C@@]21C` [DANAZOL], the IC50 result (in data set [1] (hek293); in data set [2]; in data set [3]; on Cytochrome P450 3A4; in data set [4]; in data set [5]) was “Not Active” each time. In addition, the pIC50 at Progesterone receptor is 6.59. Further, the pKi on Progesterone receptor is 7.47. For the same compound, the Ki result (in data set [3]; on Cytochrome P450 3A4) was “Not Active” each time.

As to `CCN[C@@H](C)Cc1cccc(C(F)(F)F)c1` [DEXFENFLURAMINE], the IC50 result (in data set [1] (hek293); at Progesterone receptor; in data set [2]; in data set [3]; against Cytochrome P450 3A4; in data set [4]) was “Not Active” throughout. Besides, the IC50 result in data set [5] is given as “Not Active”. Further, the Ki entry (in data set [3]; at Cytochrome P450 3A4) was “Not Active” each time.

For the compound `C[C@H](C(=O)O)c1cccc(C(=O)c2ccccc2)c1` [DEXKETOPROFEN], the IC50 entry (in data set [1] (hek293); at Progesterone receptor; in data set [2]; in data set [3]; at Cytochrome P450 3A4; in data set [4]) was “Not Active” in each case. Further, the IC50 entry in data set [5] was “Not Active”. Besides, the Ki result (in data set [3]; on Cytochrome P450 3A4) was “Not Active” in each case.

Take `Cc1c(N(C)CS(=O)(=O)[O-])c(=O)n(-c2ccccc2)n1C.[Na+]` [DIPYRONE SODIUM]: the IC50 entry (in data set [1] (hek293); on Progesterone receptor; in data set [2]; in data set [3]; against Cytochrome P450 3A4; in data set [4]) was “Not Active” throughout. In addition, in data set [5], the IC50 result was “Not Active”. For the same compound, the Ki entry (in data set [3]; at Cytochrome P450 3A4) was “Not Active” throughout.

Turning to `CC(CCc1ccc(O)cc1)NCCc1ccc(O)c(O)c1` (stereo not given) [DOBUTAMINE], the pIC50 was 6.94 in data set [1] (read-out: IC50) and 6.96 in data set [5] (read-out: IC50). The pKi is 7.25 in data set [1] (read-out: Ki) and 7.35 in data set [5] (read-out: Ki). Moreover, the IC50 entry (on Progesterone receptor; in data set [2]; in data set [3]; against Cytochrome P450 3A4; in data set [4]) was “Not Active” in each case. For the same compound, the Ki entry (in data set [3]; on Cytochrome P450 3A4) was “Not Active” throughout.

With `CCn1cc(C(=O)O)c(=O)c2cc(F)c(N3CCNCC3)nc21` [ENOXACIN], the IC50 entry (in data set [1] (hek293); on Progesterone receptor; in data set [2]; in data set [3]; against Cytochrome P450 3A4; in data set [4]) was “Not Active” throughout. Besides, the IC50 result in data set [5] was “Not Active”. For the same compound, the Ki result (in data set [3]; at Cytochrome P450 3A4) was “Not Active” each time.

As a reminder, the pIC50 is −log10 of the IC50, conventionally taken in molar units. Usually pKi stands for −log10 of the Ki, conventionally taken in molar units.

The values are drawn from ChEMBL document CHEMBL1909046, “DrugMatrix in vitro pharmacology data”.
